Patent US8486996B2, “Aroylfuranes and aroylthiophenes” (Basilea Pharmaceutica AG, priority 2006, dated 2013)
Where two headings read alike, the source gives them in different places.

Columns and labels:
Format in all cases: cell-based
[1] = Hoechst 33342 nuclear staining (48 h read-out)
In short: (§1)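 Adherent cells pre-spread 24 h before dosing, suspension cells dosed at seeding; compounds at 0.001 μM-10 μM final, 48 h at culture conditions. Hoechst 33342 (2-5 μg/ml) added for 30 min, then fluorescence microscopy scoring of apoptotic nuclear fraction and apoptosis-specific morphology, reported as scores A-D.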

tumor cells [2] = assay: Hoechst 33342 nuclear staining (48 h read-out)
In short: as §1

[3] = MTS proliferation assay (72 h read-out); details: MRC5 cells
In short: (§2)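 Viability was read by MTS absorbance at 492 nm after 3 h with reagent. Before that, cells plated a day earlier at 1.5×10^3–10^4 per well had been incubated with test compound at final concentrations of 0.001–10 μM for 72 h; activity is given as category scores A–D.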

tumor cells [4] = assay: MTS proliferation assay (72 h read-out)
In short: as §2

[5] = Mitochondrial membrane potential, JC-1 (read-out 48 h); details: PBL, JC-1, 48 h
In short: (§3)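 Tumor cells were treated with test compounds (adherent cells after 24 h of attachment, suspension cells immediately), medium holding up to 5% DMSO. After 48 h, JC-1 (2-5 μg/ml in added medium) was applied for 30 min. Fluorescence microscopy (FITC/TRITC filters) scored the fraction of cells with dissipated mitochondrial membrane potential as categories A-D.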

tumor cells [6] = assay: as above; details: JC-1, 48 h
In short: as §3

[7] = MRC5 cells, read-out: Hoechst 33342 nuclear staining EC50, MRC5
[8] = PBL, read-out: Hoechst 33342 nuclear staining EC50, PBL
[9] = HeLa cells, read-out: Hoechst 33342 nuclear staining EC50, HeLa
[10] = Jily cells, read-out: Hoechst 33342 nuclear staining EC50, Jily
[11] = Jurkat cells, read-out: Hoechst 33342 nuclear staining EC50, Jurkat
[12] = HT1080 cells, read-out: MTS proliferation assay IC50, HT1080
[13] = HeLa cells, read-out: MTS proliferation assay IC50, HeLa
[14] = Jily cells, read-out: MTS proliferation assay IC50, Jily
[15] = Jurkat cells, read-out: MTS proliferation assay IC50, Jurkat
[16] = HeLa cells, read-out: Mitochondrial membrane potential (read-out 48 h) HeLa
[17] = Jily cells, read-out: Mitochondrial membrane potential (read-out 48 h) Jily
[18] = Jurkat cells, read-out: Mitochondrial membrane potential (read-out 48 h) Jurkat
[19] = MCF7 cells, read-out: Mitochondrial membrane potential (read-out 48 h) MCF7

EC50 [1, 8] [nM] | EC50 (tumor cells [2]; [9]) [nM] | EC50 (tumor cells [2]; [10]) [nM] | EC50 (tumor cells [2]; [11]) [nM] | IC50 (tumor cells [4]; [12]) [nM] | IC50 (tumor cells [4]; [13]) [nM] | IC50 (tumor cells [4]; [14]) [nM] | IC50 (tumor cells [4]; [15]) [nM] | EC50 [5] [nM] | EC50 (tumor cells [6]; [16]) [nM] | EC50 (tumor cells [6]; [17]) [nM] | EC50 (tumor cells [6]; [18]) [nM] | EC50 (tumor cells [6]; [19]) [nM] | SMILES | EC50 [1, 7] [nM] | IC50 [3] [nM]
> 1000 | > 1000 | > 1000 | > 1000 | > 1000 | > 1000 | > 1000 | > 1000 | > 1000 | 10 to 100 | 10 to 100 | 10 to 100 | 10 to 100 | COc1ccc2oc(C(=O)c3cccnc3N3CCCCC3)cc2c1 [Example 92] | > 1000 | > 1000
> 1000 | > 1000 | > 1000 | 100 to 1000 | 100 to 1000 | 100 to 1000 | 100 to 1000 | 100 to 1000 | > 1000 | > 1000 | 100 to 1000 | 100 to 1000 | > 1000 | COc1ccc2oc(C(=O)c3cc(F)ccc3N3CCN(C)CC3)cc2c1 [Example 94] | > 1000 | 100 to 1000
> 1000 | > 1000 | > 1000 | > 1000 | 100 to 1000 | > 1000 | 100 to 1000 | 100 to 1000 | > 1000 | > 1000 | > 1000 | > 1000 | > 1000 | COc1ccc2oc(C(=O)c3cc(F)ccc3N3CCCCC3C)cc2c1 (stereo not drawn) [Example 97] | > 1000 | 100 to 1000
> 1000 | 100 to 1000 | 100 to 1000 | 100 to 1000 | 100 to 1000 | 100 to 1000 | 10 to 100 | 10 to 100 | > 1000 | 100 to 1000 | 100 to 1000 | 100 to 1000 | 100 to 1000 | COc1ccc2oc(C(=O)c3cc(F)ccc3N3CCCC(C)C3)cc2c1 (stereo not drawn) [Example 99] | > 1000 | 10 to 100
> 1000 | > 1000 | > 1000 | > 1000 | > 1000 | > 1000 | > 1000 | > 1000 | > 1000 | > 1000 | > 1000 | > 1000 | > 1000 | O=C(c1cc2cc(OCc3ccccc3)ccc2o1)c1cc(F)ccc1N1CCCCC1 [Example 110] | > 1000 | > 1000

The next lines start with the molecule.

SMILES | EC50 [1, 8] [nM] | EC50 (tumor cells [2]; [9]) [nM] | EC50 (tumor cells [2]; [10]) [nM] | EC50 (tumor cells [2]; [11]) [nM] | IC50 (tumor cells [4]; [12]) [nM] | IC50 (tumor cells [4]; [13]) [nM] | IC50 (tumor cells [4]; [14]) [nM] | IC50 (tumor cells [4]; [15]) [nM] | EC50 [5] [nM] | EC50 (tumor cells [6]; [16]) [nM] | EC50 (tumor cells [6]; [17]) [nM] | EC50 (tumor cells [6]; [18]) [nM] | EC50 (tumor cells [6]; [19]) [nM] | EC50 [1, 7] [nM] | IC50 [3] [nM]
Nc1c(C(=O)c2cc(F)ccc2N2CCOCC2)oc2ccc(Cl)cc12 [Example 93] | > 1000 | 10 to 100 | 10 to 100 | 10 to 100 | 10 to 100 | 10 to 100 | 10 to 100 | 100 to 1000 | > 1000 | 10 to 100 | 100 to 1000 | 10 to 100 | 100 to 1000 | 10 to 100 | 10 to 100
Nc1c(C(=O)c2cc(F)ccc2N2CCCCC2)oc2ccc(Cl)cc12 [Example 100] | > 1000 | 100 to 1000 | 100 to 1000 | 10 to 100 | 10 to 100 | 100 to 1000 | 10 to 100 | 10 to 100 | > 1000 | 100 to 1000 | 10 to 100 | 10 to 100 | 100 to 1000 | 100 to 1000 | 10 to 100
Nc1c(C(=O)c2cc(F)ccc2N2CCCCC2)oc2ccc(Cl)cc12 [Example 101] | > 1000 | 100 to 1000 | 100 to 1000 | 10 to 100 | 10 to 100 | 100 to 1000 | 100 to 1000 | 10 to 100 | > 1000 | 100 to 1000 | 10 to 100 | 10 to 100 | 100 to 1000 | 100 to 1000 | 100 to 1000
CN1CCN(c2ccc(F)cc2C(=O)c2oc3ccc(Cl)cc3c2N)CC1 [Example 102] | > 1000 | > 1000 | > 1000 | > 1000 | > 1000 | > 1000 | > 1000 | 100 to 1000 | > 1000 | > 1000 | > 1000 | > 1000 | > 1000 | > 1000 | > 1000
Nc1c(C(=O)c2cc(F)ccc2N2CC=CCC2)oc2ccc(Cl)cc12 [Example 103] | > 1000 | 10 to 100 | 10 to 100 | 10 to 100 | 10 to 100 | 10 to 100 | 10 to 100 | 10 to 100 | > 1000 | 10 to 100 | 10 to 100 | 10 to 100 | 10 to 100 | 10 to 100 | 10 to 100
CC1CCCN(c2ccc(F)cc2C(=O)c2oc3ccc(Cl)cc3c2N)C1 (stereo not drawn) [Example 104] | > 1000 | 100 to 1000 | 100 to 1000 | 100 to 1000 | 100 to 1000 | 100 to 1000 | 100 to 1000 | 100 to 1000 | > 1000 | 100 to 1000 | 100 to 1000 | 100 to 1000 | 100 to 1000 | 100 to 1000 | 100 to 1000
COc1ccc2oc(C(=O)c3cc(F)ccc3-n3ccnc3)cc2c1 [Example 105] | > 1000 | > 1000 | > 1000 | > 1000 | > 1000 | > 1000 | > 1000 | > 1000 | > 1000 | > 1000 | > 1000 | > 1000 | > 1000 | > 1000 | > 1000
O=C(c1cc2cc(OCc3ccccc3)ccc2o1)c1cc(F)ccc1N1CCOCC1 [Example 106] | > 1000 | > 1000 | > 1000 | > 1000 | > 1000 | > 1000 | > 1000 | > 1000 | > 1000 | > 1000 | > 1000 | > 1000 | > 1000 | > 1000 | > 1000
O=C(c1cc2cc(O)ccc2o1)c1cc(F)ccc1N1CCOCC1 [Example 107] | > 1000 | 100 to 1000 | 100 to 1000 | 100 to 1000 | 10 to 100 | 10 to 100 | 10 to 100 | 10 to 100 | > 1000 | 100 to 1000 | 10 to 100 | 10 to 100 | 100 to 1000 | 100 to 1000 | 10 to 100
CCOc1ccc2oc(C(=O)c3cc(F)ccc3N3CCOCC3)cc2c1 [Example 108] | > 1000 | 10 to 100 | 10 to 100 | 10 to 100 | 10 to 100 | 10 to 100 | 10 to 100 | 10 to 100 | > 1000 | 100 to 1000 | 10 to 100 | 10 to 100 | 100 to 1000 | 10 to 100 | 10 to 100
O=C(c1cc2cc(OCc3ccccc3)ccc2o1)c1cc(F)ccc1N1CC=CCC1 [Example 109] | > 1000 | > 1000 | > 1000 | > 1000 | > 1000 | > 1000 | > 1000 | > 1000 | > 1000 | > 1000 | > 1000 | > 1000 | > 1000 | > 1000 | > 1000
